How the values were obtained:
[1] = Pharmacokinetic analysis: brimonidine concentration in aqueous humor; assay type: in vivo; conditions: brimonidine in rabbit aqueous humor after topical administration
Method: Seven different formulations loaded with brimonidine prepared as described in Example 6-1 were topically administered to the rabbit eye and pharmacokinetics of the drug administered was examined as described below from the aqueous humor taken at a specified time in FIG. 12 after the administration. Specifically, the rabbit was generally anesthetized as described in Example 4 at the specified time after the administration and 50 μl of Aqueous humor (AH) was obtained from the rabbit eye using 1 ml syringe with 30 gauge needle, which was then used for SPE (Solid Phase Extraction) and HPLC analysis. First, Brimonidine Stock solution was prepared at the final concentration of […] in distilled water, from which 2000, 1000, 800, 600, 400, 200, 100, and 50 μg/ml of Brimonidine solution were prepared. For the calibration, 25 μl of AH from no treatment control, 25 μl Stock Solution (2000, 1000, 800, 600, 400, 200, 100, 50 μg/ml), 50 μl IS (Internal standard, clonidine)(50 μg/ml) and 200 μl of PBS (pH=8) were mixed and centrifuged at 11000×g for 10 min. and 100 μl of the supernatant was used for SPE analysis.
For the sample from the rabbit eye treated with the drug, 50 μl of AH, 50 μl of IS (50 μg/ml) and 200 μl of PBS (pH=8) were mixed and centrifuged at 11000×g for 10 min and 100 μl of the supernatant was used for SPE analysis. SPE (Bond-Eluct-C18, 100 mg, 1 ml, Agilent Technologies) analysis was proceed as below. Before the sample injection, it was washed with MeOH (1 ml) and distilled water (1 ml). Each sample for the calibration and for the analysis was then injected and washed with 1 ml of PBS and eluted with 1 ml of 70% acetonitrile, followed by evaporation for 3 hrs at 40° C. using SpeedVac (Thermo Savant SPD 2010 SpeedVac System, Thermo Electron Corporation, USA). […]
HPLC (Agilent 1260 Series, Agilent Technologies, CA, USA) was used for determining the concentration, in which 50 μl of sample was injected and analyzed under the following condition: Mobile phase=20 mM phosphate buffer (pH=2.5) : MeOH=9:1, flow rate 1 ml/min, 248 nm

[2] = system: Intra ocular pressure (IOP) of the rabbit eye; assay: Therapeutic effect: decrease in IOP after administration of drug-loaded formulations; assay type: in vivo; conditions: topical, 556.5 μg dorzolamide (25 μl of Trusopt 2%)
Method: The formulation of microparticles as prepared in Examples 6-1 and 6-2 was administered to the rabbit eye according to Example 4 and IOP was measured as described in Example 5.
For testing therapeutic effect by BRT, a total of 7 samples were used. […] For testing therapeutic effect by dorzolamide, 25 μl of Trusopt 2% (MSD, USA), PVA tablet (just containing 556.5 μg of dorzolamide 556.5 μg without any microparticles) and four different types of microparticles prepared as described above containing 556.5 μg dorzolamide were used for the test.
Then, a device for measuring IOP called Tonopen as described in Example 5 was used to measure IOP before the administration and 0.5 h˜13 h after the administration to confirm the efficacy of the drug.

Compound	AUC [1]	Cmax [1]	tmax [1]	time for which the formulation was effective in decreasing IOP (Dorzolamide) [2]
Brimonidine Tartrate [BRT solution]	0.795 µg·h/mL	0.692 µg/mL	40 min	–
CCN[C@H]1C[C@H](C)S(=O)(=O)c2sc(S(N)(=O)=O)cc21 [Dorzolamide solution, Dorzolamide]	–	–	–	5 h
